# Tests used:
# Design in all cases: key: −: no saccharide-transferred product was detected through transfer reaction to acceptor; ±: a saccharide-transferred product was detected in an amount less than one percent through transfer reaction to acceptor; +: a saccharide-transferred product was detected in an amount over one percent but less than 10% through transfer reaction to acceptor; ++: a saccharide-transferred product was detected in an amount over ten percent through transfer reaction to acceptor
# [1] = tested on: α-isomaltosylglucosaccharide-forming enzyme; test: Transfer-acceptor specificity, enzyme of N75 strain; format: biochemical, Bacillus globisporus N75 strain; conditions: acceptor 1.6%, PINE-DEX #100 donor 4%, one unit/g donor, 30° C., pH 6.0, 24 hours
# Experimental: (§1) Using various saccharides, it was tested whether the saccharides were used as transferring-acceptors for α-isomaltosylglucosaccharide-forming enzyme. A solution of D-glucose, D-xylose, L-xylose, D-galactose, D-fructose, D-mannose, D-arabinose, D-fucose, D-psicose, L-sorbose, L-rhamnose, methyl-α-glucopyranoside, methyl-β-glucopyranoside, N-acetyl-glucosamine, sorbitol, α,α-trehalose, isomaltose, isomaltotriose, cellobiose, gentibiose, glycerol, maltitol, lactose, sucrose, α-cyclodextrin, β-cyclodextrin, γ-cyclodextrin, or L-ascorbic acid was prepared. To each solution with a saccharide concentration of 1.6% was added “PINE-DEX #100”, a partial starch hydrolyzate, as a saccharide donor, to give a concentration of 4%, and admixed with one unit/g saccharide donor, d.s.b., of either of purified specimens of α-isomaltosylglucosaccharide-forming enzyme from Bacillus globisporus C9 strain obtained by the method in Experiment 4-2, Bacillus globisporus C11 strain obtained by the method in Experiment 7-2, Bacillus globisporus N75 strain obtained by the method in Experiment 11-2, or Arthrobacter globiformis A19 strain obtained by the method in Experiment 15-2, and incubated at 30° C. and pH 6.0 for 24 hours, except that pH 8.4 was used for the enzyme from Arthrobacter globiformis A19 strain. The reaction mixtures of the post-enzymatic reactions were analyzed on gas chromatography (abbreviated as “GLC” hereinafter) for monosaccharides and disaccharides as acceptors, and on HPLC for trisaccharides as acceptors to confirm whether these saccharides could be used as the transfer acceptors of the above enzymes. In the case of performing GLC, the following apparatuses and conditions were used: GLC apparatus, “GC-16A” commercialized by Shimadzu Corporation, Tokyo, Japan; column, a stainless-steel column, 3 mm in diameter and 2 m in length, packed with 2% “SILICONE OV-17/CHROMOSOLV W”, commercialized by GL Sciences Inc., Tokyo, Japan; carrier gas, nitrogen gas at a flow rate of 40 ml/min under temperature conditions of increasing from 160° C. to 320° C. at an increasing temperature rate of 7.5° C./min; and detection, a hydrogen flame ionization detector. In the case of performing HPLC analysis, the following apparatuses and conditions were used: HPLC apparatus, “CCPD” commercialized by Tosoh Corporation, Tokyo, Japan; column, “ODS-AQ-303” commercialized by YMC Co., Ltd., Tokyo, Japan; eluent, water at a flow rate of 0.5 ml/min; and detection, a differential refractometer.
# [2] = tested on: α-isomaltosylglucosaccharide-forming enzyme; test: Transfer-acceptor specificity, enzyme of C11 strain; format: biochemical, Bacillus globisporus C11 strain; conditions: acceptor 1.6%, PINE-DEX #100 donor 4%, one unit/g donor, 30° C., pH 6.0, 24 hours
# Experimental: as §1
# [3] = tested on: α-isomaltosylglucosaccharide-forming enzyme; test: Transfer-acceptor specificity, enzyme of C9 strain; format: biochemical, Bacillus globisporus C9 strain; conditions: acceptor 1.6%, PINE-DEX #100 donor 4%, one unit/g donor, 30° C., pH 6.0, 24 hours
# Experimental: as §1
# [4] = tested on: α-isomaltosylglucosaccharide-forming enzyme; test: Transfer-acceptor specificity, enzyme of A19 strain; format: biochemical, Arthrobacter globiformis A19 strain; conditions: acceptor 1.6%, PINE-DEX #100 donor 4%, one unit/g donor, 30° C., pH 8.4, 24 hours
# Experimental: as §1
SMILES,"Product of transferring reaction, Enzyme of N75 strain [1]","Product of transferring reaction, Enzyme of C11 strain [2]","Product of transferring reaction, Enzyme of C9 strain [3]","Product of transferring reaction, Enzyme of A19 strain [4]"
"O=C[C@@H](O)[C@H](O)[C@H](O)CO [D-Arabinose, D-arabinose]",± (a saccharide-transferred product was detected in an amount less than one percent through transfer reaction to acceptor),± (a saccharide-transferred product was detected in an amount less than one percent through transfer reaction to acceptor),± (a saccharide-transferred product was detected in an amount less than one percent through transfer reaction to acceptor),± (a saccharide-transferred product was detected in an amount less than one percent through transfer reaction to acceptor)
"O=C(CO)[C@@H](O)[C@H](O)[C@H](O)CO [D-Fructose, D-fructose]",+ (a saccharide-transferred product was detected in an amount over one percent but less than 10% through transfer reaction to acceptor),+ (a saccharide-transferred product was detected in an amount over one percent but less than 10% through transfer reaction to acceptor),+ (a saccharide-transferred product was detected in an amount over one percent but less than 10% through transfer reaction to acceptor),+ (a saccharide-transferred product was detected in an amount over one percent but less than 10% through transfer reaction to acceptor)
"C[C@@H](O)[C@H](O)[C@H](O)[C@@H](O)C=O [D-Fucose, D-fucose]",+ (a saccharide-transferred product was detected in an amount over one percent but less than 10% through transfer reaction to acceptor),+ (a saccharide-transferred product was detected in an amount over one percent but less than 10% through transfer reaction to acceptor),+ (a saccharide-transferred product was detected in an amount over one percent but less than 10% through transfer reaction to acceptor),± (a saccharide-transferred product was detected in an amount less than one percent through transfer reaction to acceptor)
"O=C[C@H](O)[C@@H](O)[C@@H](O)[C@H](O)CO [D-Galactose, D-galactose]",+ (a saccharide-transferred product was detected in an amount over one percent but less than 10% through transfer reaction to acceptor),+ (a saccharide-transferred product was detected in an amount over one percent but less than 10% through transfer reaction to acceptor),+ (a saccharide-transferred product was detected in an amount over one percent but less than 10% through transfer reaction to acceptor),± (a saccharide-transferred product was detected in an amount less than one percent through transfer reaction to acceptor)
"O=C[C@H](O)[C@@H](O)[C@H](O)[C@H](O)CO [D-Glucose, D-glucose]",+ (a saccharide-transferred product was detected in an amount over one percent but less than 10% through transfer reaction to acceptor),+ (a saccharide-transferred product was detected in an amount over one percent but less than 10% through transfer reaction to acceptor),+ (a saccharide-transferred product was detected in an amount over one percent but less than 10% through transfer reaction to acceptor),+ (a saccharide-transferred product was detected in an amount over one percent but less than 10% through transfer reaction to acceptor)
"O=C[C@@H](O)[C@@H](O)[C@H](O)[C@H](O)CO [D-Mannose, D-mannose]",−,−,−,± (a saccharide-transferred product was detected in an amount less than one percent through transfer reaction to acceptor)
"O=C(CO)[C@H](O)[C@H](O)[C@H](O)CO [D-Psicose, D-psicose]",+ (a saccharide-transferred product was detected in an amount over one percent but less than 10% through transfer reaction to acceptor),+ (a saccharide-transferred product was detected in an amount over one percent but less than 10% through transfer reaction to acceptor),+ (a saccharide-transferred product was detected in an amount over one percent but less than 10% through transfer reaction to acceptor),+ (a saccharide-transferred product was detected in an amount over one percent but less than 10% through transfer reaction to acceptor)
"O=C[C@H](O)[C@@H](O)[C@H](O)CO [D-Xylose, D-xylose]",++ (a saccharide-transferred product was detected in an amount over ten percent through transfer reaction to acceptor),++ (a saccharide-transferred product was detected in an amount over ten percent through transfer reaction to acceptor),++ (a saccharide-transferred product was detected in an amount over ten percent through transfer reaction to acceptor),+ (a saccharide-transferred product was detected in an amount over one percent but less than 10% through transfer reaction to acceptor)
"OCC(O)CO [Glycerol, glycerol]",+ (a saccharide-transferred product was detected in an amount over one percent but less than 10% through transfer reaction to acceptor),+ (a saccharide-transferred product was detected in an amount over one percent but less than 10% through transfer reaction to acceptor),+ (a saccharide-transferred product was detected in an amount over one percent but less than 10% through transfer reaction to acceptor),+ (a saccharide-transferred product was detected in an amount over one percent but less than 10% through transfer reaction to acceptor)
"O=C1O[C@H]([C@@H](O)CO)C(O)=C1O [L-Ascorbic acid, L-ascorbic acid]",+ (a saccharide-transferred product was detected in an amount over one percent but less than 10% through transfer reaction to acceptor),+ (a saccharide-transferred product was detected in an amount over one percent but less than 10% through transfer reaction to acceptor),+ (a saccharide-transferred product was detected in an amount over one percent but less than 10% through transfer reaction to acceptor),+ (a saccharide-transferred product was detected in an amount over one percent but less than 10% through transfer reaction to acceptor)
"C[C@H](O)[C@H](O)[C@@H](O)[C@@H](O)C=O [L-Rhamnose, L-rhamnose]",−,−,−,−
